What was measured:
[1] = biological target: T1, Baculoviral IAP repeat-containing protein 3 [255-322] (Homo sapiens, UniProt Q13489); test: Fluorescence Polarization Affinity Measurements; details: pH 7.2; 22 °C
T1 construct: 255-322
Description: (§1) Samples for fluorescence polarization affinity measurements were prepared by addition of serial dilutions of […] to each well containing antagonist and polarization probe in the buffer. Samples were read after 30-min incubation. Fluorescence polarization values were plotted as a function of the antagonist concentration, and the IC50 values were obtained by fitting the data to a four-parameter equation using KaleidaGraph software. Ki values for the antagonists were determined from the IC50 values.

[2] = biological target: T2, Baculoviral IAP repeat-containing protein 2 [269-336] (Homo sapiens, UniProt Q13490); test: Fluorescence Polarization Affinity Measurements; details: pH 7.2; 22 °C
T2 construct: 269-336
T2 sequence (Q13490 269-336): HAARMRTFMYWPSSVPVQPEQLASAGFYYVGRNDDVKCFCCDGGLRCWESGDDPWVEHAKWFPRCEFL
Description: as §1

[3] = Samples for fluorescence polarization affinity measurements were prepared by addition of serial dilutions of […] to each well containing antagonist and polarization probe in the buffer. Samples were read after 30-min incubation. Fluorescence polarization values were plotted as a function of the antagonist concentra; details: pH 7.2

T1 sequence (Q13489 255-322): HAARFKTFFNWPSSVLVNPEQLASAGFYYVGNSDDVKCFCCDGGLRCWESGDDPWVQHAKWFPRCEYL

Compound	Ki [1]	Ki [2]	Ki [3]
CN[C@@H](C)C(=O)N[C@H](C(=O)N1CCC[C@H]1c1nc2c(-c3ccccc3Cl)nccc2s1)C1CCOCC1 [PS-1]	96 nM	36 nM	33 nM
CN[C@@H](C)C(=O)N[C@H](C(=O)N1CCC[C@H]1C(=O)Nc1ccccc1-c1ncccn1)C1CCCCC1 [CS-2]	114 nM	37 nM	5050 nM
CN[C@H](C)C(=O)N[C@@H](C(=O)N1CCC[C@@H]1c1nc2c(-c3ccccc3Cl)nccc2s1)C1CCOCC1 [ent-PS-1]	> 34000 nM	> 34000 nM	> 34000 nM
CN[C@@H](C)C(=O)N[C@H](C(=O)N1CC[C@H](C)[C@H]1C(=O)Nc1cc(C)nn1-c1ccccc1)C1CCCCC1 [CS-1]	52 nM	10 nM	2400 nM
